Test results published in ChEMBL document CHEMBL2074109, “ATP-Dependent efflux of CPT-11 and SN-38 by the multidrug resistance protein (MRP) and its inhibition by PAK-104P” (Mol Pharmacol, 1999).

Biological target: Multidrug resistance-associated protein 1 (Homo sapiens, UniProt P33527)
Assay: TP_TRANSPORTER: intracellular accumulation in KB-3-1 and MRP1-expressing KB-3-1 cells
Format: functional, cell-based, KB-3-1; KB/MRP
Conditions: kb/mrp

Multidrug resistance-associated protein 1, sequence (P33527 whole entry): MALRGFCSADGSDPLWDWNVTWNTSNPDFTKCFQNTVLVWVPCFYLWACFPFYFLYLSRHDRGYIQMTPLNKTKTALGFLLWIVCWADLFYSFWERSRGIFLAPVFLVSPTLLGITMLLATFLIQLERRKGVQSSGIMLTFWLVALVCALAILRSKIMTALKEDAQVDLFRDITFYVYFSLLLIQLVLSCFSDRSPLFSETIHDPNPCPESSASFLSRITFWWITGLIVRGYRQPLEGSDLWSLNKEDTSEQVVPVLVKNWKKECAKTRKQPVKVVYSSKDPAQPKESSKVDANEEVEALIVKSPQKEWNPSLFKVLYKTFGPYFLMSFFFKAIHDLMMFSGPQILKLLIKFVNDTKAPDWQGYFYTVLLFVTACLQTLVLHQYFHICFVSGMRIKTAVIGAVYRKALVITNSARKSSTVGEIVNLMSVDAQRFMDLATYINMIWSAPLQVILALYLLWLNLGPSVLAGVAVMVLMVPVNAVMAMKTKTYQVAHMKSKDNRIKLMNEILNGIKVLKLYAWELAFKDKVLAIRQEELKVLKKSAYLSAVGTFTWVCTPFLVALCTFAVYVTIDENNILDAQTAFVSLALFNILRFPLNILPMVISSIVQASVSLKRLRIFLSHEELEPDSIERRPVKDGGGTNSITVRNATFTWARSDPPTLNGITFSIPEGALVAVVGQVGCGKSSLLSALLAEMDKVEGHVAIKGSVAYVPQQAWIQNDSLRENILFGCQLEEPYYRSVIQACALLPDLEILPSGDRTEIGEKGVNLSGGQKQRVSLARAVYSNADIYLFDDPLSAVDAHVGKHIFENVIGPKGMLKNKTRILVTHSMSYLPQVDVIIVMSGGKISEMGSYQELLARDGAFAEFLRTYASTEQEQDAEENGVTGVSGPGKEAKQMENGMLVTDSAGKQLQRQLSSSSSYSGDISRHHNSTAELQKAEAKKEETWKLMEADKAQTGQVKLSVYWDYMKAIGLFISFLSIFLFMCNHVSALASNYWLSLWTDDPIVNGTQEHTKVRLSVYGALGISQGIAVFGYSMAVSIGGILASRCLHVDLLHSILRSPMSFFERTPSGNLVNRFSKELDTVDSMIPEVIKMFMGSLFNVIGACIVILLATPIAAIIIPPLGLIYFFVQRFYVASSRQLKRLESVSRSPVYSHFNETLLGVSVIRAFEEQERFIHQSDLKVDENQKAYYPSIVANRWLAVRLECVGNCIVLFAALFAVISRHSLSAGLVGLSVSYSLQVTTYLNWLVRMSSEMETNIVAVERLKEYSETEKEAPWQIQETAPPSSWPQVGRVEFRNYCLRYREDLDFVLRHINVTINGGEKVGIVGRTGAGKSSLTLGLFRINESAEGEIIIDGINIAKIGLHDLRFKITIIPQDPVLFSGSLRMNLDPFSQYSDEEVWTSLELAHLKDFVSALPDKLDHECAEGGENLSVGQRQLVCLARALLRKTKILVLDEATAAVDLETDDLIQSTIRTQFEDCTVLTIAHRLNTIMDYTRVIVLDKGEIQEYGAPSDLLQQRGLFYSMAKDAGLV

Activity | Compound
substrate [+] | CCc1c2c(nc3ccc(O)cc13)-c1cc3c(c(=O)n1C2)COC(=O)[C@]3(O)CC [7-ETHYL-10-HYDROXYCAMPTOTHECIN]
substrate [+] | CCc1c2c(nc3ccc(OC(=O)N4CCC(N5CCCCC5)CC4)cc13)-c1cc3c(c(=O)n1C2)COC(=O)[C@]3(O)CC [IRINOTECAN]
